From the supplement of paper PMC10307832

What was measured:
Test in all cases: relative viability (nuclei count vs DMSO), 5 days (fraction); higher = more cells survive
[1] = compound: Cc1ccc(C(=O)N(CCCN)[C@@H](c2nc3cc(Cl)ccc3c(=O)n2Cc2ccccc2)C(C)C)cc1 [Ispinesib] + CC(C)C[C@H](NC(=O)[C@H](Cc1ccccc1)NC(=O)c1cnccn1)B(O)O [Bortezomib] (partner 0.002 µM)
Outline: (§1)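 A single step with final 0.05% Triton X-100, 1% formaldehyde and 1 ug/ml Hoechst fixed the cells and stained nuclei 5 days after treatment. Lung cancer cell lines in 1536-well plates had been treated by pin tool the day after seeding with one drug alone or a fixed anchor-drug dose plus five library-drug doses (not always all listed) in √10 steps, and nuclei were counted on 4× images. Relative viability is the ratio of nuclei in treated wells to nuclei in vehicle wells, taken as the median of duplicate plates.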

[2] = compound: C[C@]1(O)C[C@@H](c2nc(-c3ccc4ccc(-c5ccccc5)nc4c3)c3c(N)nccn32)C1 [Linsitinib] + Cc1cc(Nc2cc(N3CCN(C)CC3)nc(Sc3ccc(NC(=O)C4CC4)cc3)n2)n[nH]1 [Tozasertib] (partner 0.1 µM)
Outline: as §1

[3] = compound: Cc1ccc(C(=O)N(CCCN)[C@@H](c2nc3cc(Cl)ccc3c(=O)n2Cc2ccccc2)C(C)C)cc1 [Ispinesib] + Cc1cc(Nc2cc(N3CCN(C)CC3)nc(Sc3ccc(NC(=O)C4CC4)cc3)n2)n[nH]1 [Tozasertib] (partner 0.1 µM)
Outline: as §1

[4] = compound: Cc1ccc(C(=O)N(CCCN)[C@@H](c2nc3cc(Cl)ccc3c(=O)n2Cc2ccccc2)C(C)C)cc1 [Ispinesib] + CC1(C)CCC(c2ccc(Cl)cc2)=C(CN2CCN(c3ccc(C(=O)NS(=O)(=O)c4ccc(N[C@H](CCN5CCOCC5)CSc5ccccc5)c(S(=O)(=O)C(F)(F)F)c4)cc3)CC2)C1 [Navitoclax] (partner 0.5 µM)
Outline: as §1

Cell Line: UMC-11
- relative viability ([1]; first compound 0.001 µM): 0.505
- relative viability ([1]; first compound 0.003162 µM): 0.72
- relative viability ([1]; first compound 0.01 µM): 0.657
- relative viability ([1]; first compound 0.03162 µM): 0.207
- relative viability ([1]; first compound 0.1 µM): 0.183
- relative viability ([2]; first compound 0.01 µM): 0.204
- relative viability ([2]; first compound 0.1 µM): 0.196
- relative viability ([2]; first compound 1 µM): 0.19
- relative viability ([3]; first compound 0.001 µM): 0.201
- relative viability ([3]; first compound 0.003162 µM): 0.201
- relative viability ([3]; first compound 0.01 µM): 0.212
- relative viability ([3]; first compound 0.03162 µM): 0.189
- relative viability ([3]; first compound 0.1 µM): 0.205
- relative viability ([4]; first compound 0.001 µM): 0.314
- relative viability ([4]; first compound 0.003162 µM): 0.371
- relative viability ([4]; first compound 0.01 µM): 0.267
- relative viability ([4]; first compound 0.03162 µM): 0.176
- relative viability ([4]; first compound 0.1 µM): 0.216
